Test results published in patent publication US20260325485A1, “COMPOSITIONS AND METHODS FOR TREATING PANCREATITIS” (The United States Government as represented by the …, priority 2022, published 2026).

Experiments:
[1] = tested on: cerulein pancreatitis (CER-AP); assay: Drug treatment of cerulein pancreatitis (CER-AP) in WT mice; type: in vivo, mouse; conditions: WT mice treated with simvastatin or BemA
Procedure: (§1) FIGS. 10A-10N show deranged cholesterol metabolism causes acinar cell damage, while its normalization ameliorates experimental pancreatitis. (A-D) Cholesterol content and trypsin activity were measured (per mg protein) in WT mouse acinar cells incubated for 1 hour without and with methyl-β-cyclodextrin (MCD; 10 mM) or cholesterol-loaded MCD (MCD-Chol; 200 μg/mL), in the presence or absence of 100 nM CCK. Values are expressed relative to those in cells without MCD/MCD-Chol. (E-J) WT mice received daily i.p. injections of the LXR agonist T0901317 (T09), simvastatin (Sim; 20 mg/kg each), or vehicle. On day 4, mice were subjected to CER-AP and pancreata collected for analyses (see also FIG. 20). Cholesterol content (E), trypsin activity (F), and pancreas histopathology (H&E staining; G) were measured. (H, I, L, and N) IB analysis of markers/mediators of autophagy (LC3, p62), ER stress (CHOP, GRP-78), and mitophagy (Parkin). Ub, ubiquitylated proteins. (J) Mitochondrial fragmentation was assessed by immunostaining for Tom20, as detailed in FIG. 7G. (K and L) Mouse acinar cells were treated for 16 hours with LDL (30 μg/mL) or the combination of LDL and 10 μM U18666A. (M and N) Mice received injections of U18666A as detailed in FIG. 9B. Pancreas histopathology (H&E staining; M) and levels of autophagy markers/mediators (N) were measured. Each symbol in A-F and I represents an individual mouse or cell preparation. Values are mean±SEM from 3 to 7 mice or cell preparations per condition. ^§ P<0.05, ^§§ P<0.01 vs. control cells (without MCD/MCD-Chol). ***P<0.001 vs. saline-treated mice. ^#P<0.05, ^##P<0.01, ^###P<0.001 vs. CER-AP alone (no inhibitors). Significance was determined by 2-tailed Student's t test (A-D) or 1-way ANOVA followed by Tukey's multiple comparison test (E, F, and I). Scale bars: 10 μm.
FIGS. 20A-20C show simvastatin improves cerulein pancreatitis. Mice received daily i.p. injections of simvastatin (Sim; 20 mg/kg) or vehicle (see FIG. 10), and on day 4 were subjected to cerulein pancreatitis (CER-AP). (A) Pancreas histopathology (H&E staining; scale: 10 μm). (B) IB analysis of markers/mediators of autophagy (LC3, p62), ER stress (CHOP), and the MLN64/STARD3 protein mediating cholesterol transfer from LE/Ly to mitochondria. Each IB lane represents an individual mouse; ERK1/2 is the loading control. […] Ub, ubiquitylated proteins. (C) Pancreatitis responses. Values are mean±SEM from 7-13 mice for each condition. ***p<0.001 vs saline control. ^###p<0.001 vs CER-AP alone (no simvastatin). Significance was determined by 1-way ANOVA followed by Tukey's multiple comparisons test.
(§2) FIGS. 25A-25C show reducing cholesterol overload greatly ameliorates experimental pancreatitis. CER-AP responses were measured in (A) AclyAac or (C) WT mice treated with simvastatin or bempedoic acid (BemA). (B) Acinar cells were transfected with ACLA (or mock) siRNA and subjected to ex-vivo CCK-AP. Each symbol represents an individual mouse or cell preparation. Values are mean±SE. **p<0.01, ***p<0.001 vs saline treated control mice (or mock transfection); #p<0.05, ##p<0.01, ###p<0.001 vs CER/CCK-AP in control mice (i.e. without inhibitors) or cells.
Cerulein-induced (CER-AP) and L-arginine induced (Arg-AP) acute pancreatitis models were performed in 12-week-old C57BL/6 mice that received 7 hourly i.p. injections of 50 μg/kg cerulein or 3 hourly i.p. injections of 3.3 g/kg Arg; controls received physiologic saline injections. Mice were euthanized for analyses 7 hours after the first cerulein or 24 hours after the first Arg injection. Choline deficient, ethionine-supplemented (CDE) pancreatitis was induced in young (~5-weeks old) female mice fed either CDE or control diet. Mice were euthanized 72 hours after the diet initiation. These models have been described in detail (1-7).
12-week-old WT mice were subjected for 4 consecutive days to daily i.p. injections of 20 mg/kg simvastatin (8,9) or 20 mg/kg T0901317 (10); or 10 mg/kg U18666A for 15 days (11). […]

CER/CCK-AP = assay: Effect of simvastatin and BemA in CER/CCK-AP (mouse and ex-vivo model)
Procedure: as §2
(§3) FIGS. 26A-26D preventing cholesterol overload ameliorates ex-vivo pancreatitis. Mouse pancreatic acinar cells were incubated (A, B) with simvastatin (4 μM, 3 h) or (C, D) cholesterol chelator, methyl-β-cyclodextrin (MCD; 10 mM, 1 h) and then subjected to CCK-AP for 1 (D) or 3 h (A, B). Cholesterol content (A, C) necrosis (B), and trypsin activity (D) were measured. Each symbol represents an individual cell preparation. Values are mean±SEM*p<0/05, **p<0.01 vs control; #p<0.05 ##p<0.01; vs CCK, no inhibitor.
Cholesterol metabolism is disrupted in pancreatitis as a result of lysosomal/autophagy dysfunction. Preventing acinar cell cholesterol overload with simvastatin alleviates AP in one experimental model (CER-AP). As discussed above, lysosomal/autophagy dysfunction is associated with both experimental and human pancreatitis.^6, 7, 9, 13, 17 However, until a recent publication^13 there was very little known on cholesterol metabolism in healthy pancreas, its changes in experimental and human pancreatitis, and role in disease severity. Further, effects of statins and other cholesterol-lowering drugs in pancreas, and the underlying mechanisms, have not been explored. […] This, in turn, stimulates a compensatory increase in cholesterol synthesis, further exacerbating cholesterol overload. It was further shown^13 that inhibition of cholesterol synthesis with simvastatin reduced acinar cell cholesterol overload and the severity of pancreatitis induced with supramaximal cerulein (CER), an ortholog of the hormone cholecystokinin-8 (CCK). The findings^13 reveal a previously unrecognized pathogenic role of cholesterol dysregulation in pancreatitis and indicate normalizing cholesterol metabolism as a novel therapeutic approach for disease treatment.
In summary, the published^13 and current data (FIGS. 23-26) reveal that disruption of acinar cell cholesterol metabolism is a common feature in models of experimental pancreatitis and also prominent in human disease. The key manifestation of cholesterol dyshomeostasis in pancreatitis is acinar cell cholesterol overload. […]

muscles = conditions: prodrug activated in the liver; cited from earlier work
pancreas = conditions: pharmacologic autophagy enhancer; cited from earlier work
trypsin [2] = assay: Trypsin activity in WT mouse acinar cells without and with CCK; type: cell-based; conditions: MCD 10 mM, 1 hour, 100 nM CCK
Procedure: as §1, with “(K and L) Mouse acinar cells were treated for 16 hours with LDL (30 μg/mL) or the combination of LDL and 10 μM U18666A. (M and N) Mice received injections of U18666A as detailed in FIG. 9B.” left out, “Each symbol in A-F and I represents an individual mouse or cell preparation. Values are mean±SEM from 3 to 7 mice or cell preparations per condition. ^§ P<0.05, ^§§ P<0.01 vs. control cells (without MCD/MCD-Chol). ***P<0.001 vs. saline-treated mice. ^#P<0.05, ^##P<0.01, ^###P<0.001 vs. CER-AP alone (no inhibitors).” left out, “Scale bars: 10 μm.” left out

[3] = tested on: mouse pancreatic acinar cells; assay: Ex-vivo CCK-AP in mouse pancreatic acinar cells treated with simvastatin or MCD; type: cell-based; conditions: simvastatin 4 μM, 3 h or MCD 10 mM, 1 h
Procedure: as §3
(§4) Ex vivo pancreatitis models were performed on mouse and human acinar cells, and human pancreas slices by incubation with supramaximal CCK (100 nM) or carbachol (1 mM), as described previously (80, 81).
(§5) Activities of cathepsin (Cat) B and L, caspase-3, trypsin, and lysosomal acid lipase (LAL) were measured in pancreatic tissue or cell homogenates and subcellular fractions with fluorogenic assays using substrates specific for CatB (Z-Arg-Arg-AMC), CatL (Z-Phe-Arg-AMC), caspase-3-like ([…]), trypsin (Boc-Gln-Ala-Arg-AMC), as previously described (1-4, 6, 7); and for LAL (4-methylumbelliferyl oleate), as in (17). In measurements of CatL activity, the assay buffer also contained 50 μM CA-074me, a CatB inhibitor. LAL activity was measured in the absence and presence of the LAL inhibitor lalistat (100 μM) as the difference between these values (17).
(§6) Total cholesterol content was measured with Cholesterol Assay kit per manufacturer's instructions. Samples of mouse pancreas and liver, cell pellet homogenates, subcellular fractions, isolated mitochondria, and serum were diluted in the reaction buffer containing cholesterol probe and incubated at 37° C. for 1 h in the dark. To measure total cholesterol, the samples were subjected to digestion with cholesterol esterase. To measure non-esterified cholesterol, the esterase was omitted from the assay.

trypsin [4] = assay: Trypsin activity in Gnptab−/− acinar cells; type: cell-based, mouse; conditions: Gnptab−/− acinar cells, cholesterol chelator MCD
Procedure: FIGS. 6A-6R show mechanisms mediating increased trypsin activity in Gnptab−/− pancreas. Trypsin activity and its regulation were analyzed in pancreatic (A, C, and D) tissue, (B and P-R) acinar cells, (E-H and O) lobules, and (I-N) subcellular fractions. In B, acinar cells were incubated for 3 hours without and with 20 nM BafAl or 50 μM CatB inhibitor CA-074Me; in P-R, with the cholesterol chelator methyl-β-cyclodextrin (MCD) at the indicated concentrations. In E-H, pancreatic lobules were double stained for TAP and LC3 or LAMP2; in O, for TAP and filipin. Quantitative colocalization analysis was done as detailed in FIG. 2. Each symbol in A, B, J-N, Q, and R represents an individual mouse or cell preparation (n=3-8 per condition). Each symbol in D, G, and H corresponds to 20 to 30 cells in a different field (n=9-20 fields from 3 WT and 3 KO mice or lobule preparations). Values are mean±SEM. **P<0.01, ***P<0.001 vs. WT tissue/lobules (A, G, and H) or corresponding WT subcellular fraction (K and M). ##P<0.01 vs. no inhibitors (B) or MCD (Q and R). ††P<0.01, †††P<0.001 vs. the other two fractions (L and N). Significance was determined by 2-tailed Student's t test (A, G, and H) or 1-way ANOVA followed by Tukey's multiple comparison test (B, K-N, Q, and R). Scale bars: 10 μm.
as §5

mouse acinar cells [5] = assay: Total cholesterol content of mouse acinar cells (ex vivo pancreatitis models or cholesterol chelator); type: cell-based; conditions: Gnptab−/− acinar cells
Procedure: FIGS. 8A-8M show derangement of cholesterol metabolism in experimental pancreatitis. Characteristics of cholesterol metabolism were measured, as detailed in FIGS. 4A-4R, in pancreas of WT mice subjected to pancreatitis induced with cerulein (CER-AP), L-arginine (Arg-AP), or CDE diet (CDE-AP) (A, B, and E-G); ex vivo pancreatitis induced in WT mouse (C and I-M) or human acinar cells (D) with 100 nM CCK (CCK-AP) or 1 mM carbachol; and isolated pancreatic mitochondria (H). (B) Cholesterol ester (CE) heatmap; each column represents an individual mouse. (F) IB analysis of the indicated proteins. (G) LAL activity was measured by a fluorogenic assay (n=6 mice per condition). (H) Cholesterol content was measured by enzymatic assay. (I-M) Filipin colocalization with indicated proteins was quantified as detailed in FIGS. 2A-2L. Each symbol in A, C-E, and H represents an individual mouse, or cell or mitochondria preparation (n=3-15 per condition). Each symbol in J, K, and M corresponds to 20-30 cells in a different field (n=10-20 fields from 3 cell preparations per condition). Values are mean±SEM. *P<0.05, **P<0.01, ***P<0.001 vs. the same parameter in control/untreated pancreas, acinar cells or isolated mitochondria. Significance was determined by 2-tailed Student's t test (B, E, H, J, K, and M) or 1-way ANOVA followed by Tukey's multiple comparison test (A, C, and D). Scale bars: 10 μm.
Parameters of cholesterol metabolism were measured in (A, B, E, F) pancreas of mice subjected to pancreatitis induced with cerulean (CER-AP), L-arginine (Arg-AP), or combination of EtOH+palmitoleic acid (EtOH+POA); and (C) ex-vivo models on mouse and human acinar cells treated for 1 h with 100 nM CCK, […] or 500 μM TLCS. In (A), each column in CE heatmap represents an individual mouse. (B, C) Total cholesterol content was measured with cholesterol assay kit (Abcam, ab65390). […] Each symbol corresponds to 20-30 cells in each of 8 high-expression (qPCR) of proteins regulating cholesterol synthesis (4 mice/group). (B-D) Each symbol represents an individual animal or cell preparation. (A-D, F) Values are mean±SE (*p<0.05, **p<0.01, ***p<0.001 vs saline or control). Signficance was determined by 2-tailed student's t test.
as §4, §6
Fluorescence intensity (for cholesterol) and absorbance (for TAG) were measured in a Tecan microplate reader. Each measurement was in duplicate, and the values were normalized per mg total protein in the sample.

mouse acinar cells [6] = conditions: cited from earlier work

CC(C)(CCCCCC(O)CCCCCC(C)(C)C(=O)O)C(=O)O [BemA, Bempedoic acid]
cholesterol overload in CER-AP (FIG. 25C) [1]: decreased | inflammation in CER-AP (FIG. 25C) [1]: ameliorated | necrosis in CER-AP (FIG. 25C) [1]: ameliorated | trypsin activity in CER-AP (FIG. 25C) [1]: ameliorated | cholesterol overload, CER/CCK-AP (CER/CCK-AP): prevented | disease severity, CER/CCK-AP (CER/CCK-AP): reduced | myotoxicity (muscles): minimal

OC[C@H]1O[C@H](O[C@H]2O[C@H](CO)[C@@H](O)[C@H](O)[C@H]2O)[C@H](O)[C@@H](O)[C@@H]1O [trehalose]
pancreas injury in AP models (pancreas): largely prevented

methyl-β-cyclodextrin [MCD]
CCK-induced trypsinogen activation (trypsin [2]): reduced | cholesterol overload in ex-vivo CCK-AP [3]: Reducing | extent of necrosis in ex-vivo CCK-AP [3]: greatly decreased | trypsinogen activation in ex-vivo CCK-AP [3]: greatly decreased | Trypsin activity, KO cells, MCD (trypsin [4]): greatly decreased | Resistance of Gnptab−/− acinar cells to MCD (mouse acinar cells [5]): highly resistant | MCD concentration at which cholesterol-reducing effect is evident (mouse acinar cells [5]; only at this concentration): 50 mM | usual cholesterol-reducing MCD concentration (mouse acinar cells [6]): 1 to 5 mM
